Test results published in article PMC4997885, “In Vitro and In Vivo Assessments of Cardiovascular Effects with Omadacycline” (Antimicrobial Agents and Chemotherapy, 2016).
In brackets after ≈: the same amount, converted by molar mass.

Columns and labels:
M1 = target: T1, M1 (Homo sapiens, UniProt P11229); assay: radioligand binding inhibition; details: […] test; read-out: EC50 or IC50
T1 construct: gene CHRM1; human recombinant receptor
T1 sequence (P11229 1-460): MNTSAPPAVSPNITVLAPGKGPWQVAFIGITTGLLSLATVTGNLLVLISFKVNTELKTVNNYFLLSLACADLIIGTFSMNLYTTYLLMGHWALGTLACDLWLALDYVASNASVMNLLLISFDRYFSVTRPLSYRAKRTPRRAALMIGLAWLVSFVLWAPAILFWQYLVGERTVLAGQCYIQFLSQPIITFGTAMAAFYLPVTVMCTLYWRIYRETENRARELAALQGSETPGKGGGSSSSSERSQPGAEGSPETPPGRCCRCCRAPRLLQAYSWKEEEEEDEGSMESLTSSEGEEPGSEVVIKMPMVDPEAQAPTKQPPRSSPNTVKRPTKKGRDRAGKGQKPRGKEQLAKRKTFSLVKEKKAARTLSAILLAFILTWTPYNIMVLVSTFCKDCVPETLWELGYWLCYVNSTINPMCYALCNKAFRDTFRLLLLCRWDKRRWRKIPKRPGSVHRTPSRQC
Description: radioligand binding inhibition on M1

[1] = target: T2, M2 (muscarinic subtype 2 acetylcholine receptor) (Homo sapiens, UniProt P08172); assay: radioligand binding inhibition; details: range of […] separate tests ([…] and […])
T2 construct: gene CHRM2; human recombinant receptor
T2 sequence (P08172 1-466): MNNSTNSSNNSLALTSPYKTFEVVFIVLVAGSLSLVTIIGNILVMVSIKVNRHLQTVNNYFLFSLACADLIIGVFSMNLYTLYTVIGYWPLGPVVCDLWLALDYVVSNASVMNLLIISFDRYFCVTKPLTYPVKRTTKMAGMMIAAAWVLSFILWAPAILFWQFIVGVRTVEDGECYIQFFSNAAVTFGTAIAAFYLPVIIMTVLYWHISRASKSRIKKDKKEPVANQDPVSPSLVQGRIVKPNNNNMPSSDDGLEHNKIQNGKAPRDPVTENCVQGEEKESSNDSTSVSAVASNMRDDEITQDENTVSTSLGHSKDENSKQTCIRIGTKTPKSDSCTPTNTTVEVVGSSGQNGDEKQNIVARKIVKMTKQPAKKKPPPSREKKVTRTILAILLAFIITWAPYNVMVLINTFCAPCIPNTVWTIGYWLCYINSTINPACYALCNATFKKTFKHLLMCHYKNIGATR

[2] = target: T2, M2 (muscarinic subtype 2 acetylcholine receptor); assay: functional M2 antagonist assay; type: cell-based; details: antagonist mode; range of […] separate tests ([…])
[3] = target: T3, M3 (muscarinic receptor M3) (Homo sapiens, UniProt P20309); assay: radioligand binding inhibition; details: […] test; read-out: EC50 or IC50
T3 construct: gene CHRM3; human recombinant receptor
T3 sequence (P20309 whole entry): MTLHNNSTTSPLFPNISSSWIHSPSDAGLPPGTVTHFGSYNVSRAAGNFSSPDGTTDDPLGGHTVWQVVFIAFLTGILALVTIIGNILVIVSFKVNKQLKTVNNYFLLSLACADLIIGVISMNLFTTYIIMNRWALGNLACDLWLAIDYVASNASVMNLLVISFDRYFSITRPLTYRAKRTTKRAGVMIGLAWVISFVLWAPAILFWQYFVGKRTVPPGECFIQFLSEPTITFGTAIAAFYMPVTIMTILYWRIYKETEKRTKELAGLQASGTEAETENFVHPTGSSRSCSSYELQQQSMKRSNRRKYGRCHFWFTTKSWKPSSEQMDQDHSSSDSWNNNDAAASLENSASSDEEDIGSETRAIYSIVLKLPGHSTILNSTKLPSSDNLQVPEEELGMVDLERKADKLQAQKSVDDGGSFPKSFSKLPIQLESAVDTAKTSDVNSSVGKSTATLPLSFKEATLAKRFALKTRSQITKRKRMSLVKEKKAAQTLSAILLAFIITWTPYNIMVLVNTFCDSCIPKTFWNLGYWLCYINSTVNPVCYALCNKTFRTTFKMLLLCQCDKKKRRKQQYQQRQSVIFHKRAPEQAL
Description: radioligand binding inhibition on M3 (muscarinic receptor M3)

[4] = target: T2, M2 (muscarinic subtype 2 acetylcholine receptor); assay: radioligand binding inhibition screen; details: read-out: % inhibition or stimulation^a
Description: radioligand binding inhibition screen on M2 (muscarinic subtype 2 acetylcholine receptor)

M4 = target: T4, M4 (Homo sapiens, UniProt P08173); assay: radioligand binding inhibition; details: […] separate tests; read-out: EC50 or IC50
T4 construct: gene CHRM4; human recombinant receptor
T4 sequence (P08173 1-479): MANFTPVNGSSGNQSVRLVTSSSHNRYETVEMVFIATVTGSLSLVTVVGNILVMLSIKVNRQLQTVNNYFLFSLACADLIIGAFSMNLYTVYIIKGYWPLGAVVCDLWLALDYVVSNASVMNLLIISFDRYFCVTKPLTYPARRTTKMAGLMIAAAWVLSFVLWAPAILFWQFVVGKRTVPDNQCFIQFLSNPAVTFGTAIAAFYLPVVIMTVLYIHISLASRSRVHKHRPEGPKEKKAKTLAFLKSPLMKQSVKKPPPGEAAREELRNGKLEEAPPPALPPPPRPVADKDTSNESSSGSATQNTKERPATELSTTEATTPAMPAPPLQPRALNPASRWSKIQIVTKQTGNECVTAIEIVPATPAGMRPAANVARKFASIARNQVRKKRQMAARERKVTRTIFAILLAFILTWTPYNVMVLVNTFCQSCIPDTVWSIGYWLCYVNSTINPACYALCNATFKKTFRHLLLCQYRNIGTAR
Description: radioligand binding inhibition on M4

[5] = target: T2, M2 (muscarinic subtype 2 acetylcholine receptor); assay: functional M2 agonist assay; type: cell-based; details: agonist mode; […] separate tests; read-out: EC50 or IC50
Description: functional M2 agonist assay on M2 (muscarinic subtype 2 acetylcholine receptor)

[6] = target: T5, hERG (human ether-a-go-go-related gene) channel (Homo sapiens, UniProt Q12809); assay: hERG tail current electrophysiology, HEK293 cells; type: cell-based; details: room temperature; […] tested; corrected for vehicle rundown; point-to-point fit
T5 construct: gene KCNH2; hERG cDNA stably transfected in HEK293 cells; homotetramer
T5 sequence (Q12809 whole entry): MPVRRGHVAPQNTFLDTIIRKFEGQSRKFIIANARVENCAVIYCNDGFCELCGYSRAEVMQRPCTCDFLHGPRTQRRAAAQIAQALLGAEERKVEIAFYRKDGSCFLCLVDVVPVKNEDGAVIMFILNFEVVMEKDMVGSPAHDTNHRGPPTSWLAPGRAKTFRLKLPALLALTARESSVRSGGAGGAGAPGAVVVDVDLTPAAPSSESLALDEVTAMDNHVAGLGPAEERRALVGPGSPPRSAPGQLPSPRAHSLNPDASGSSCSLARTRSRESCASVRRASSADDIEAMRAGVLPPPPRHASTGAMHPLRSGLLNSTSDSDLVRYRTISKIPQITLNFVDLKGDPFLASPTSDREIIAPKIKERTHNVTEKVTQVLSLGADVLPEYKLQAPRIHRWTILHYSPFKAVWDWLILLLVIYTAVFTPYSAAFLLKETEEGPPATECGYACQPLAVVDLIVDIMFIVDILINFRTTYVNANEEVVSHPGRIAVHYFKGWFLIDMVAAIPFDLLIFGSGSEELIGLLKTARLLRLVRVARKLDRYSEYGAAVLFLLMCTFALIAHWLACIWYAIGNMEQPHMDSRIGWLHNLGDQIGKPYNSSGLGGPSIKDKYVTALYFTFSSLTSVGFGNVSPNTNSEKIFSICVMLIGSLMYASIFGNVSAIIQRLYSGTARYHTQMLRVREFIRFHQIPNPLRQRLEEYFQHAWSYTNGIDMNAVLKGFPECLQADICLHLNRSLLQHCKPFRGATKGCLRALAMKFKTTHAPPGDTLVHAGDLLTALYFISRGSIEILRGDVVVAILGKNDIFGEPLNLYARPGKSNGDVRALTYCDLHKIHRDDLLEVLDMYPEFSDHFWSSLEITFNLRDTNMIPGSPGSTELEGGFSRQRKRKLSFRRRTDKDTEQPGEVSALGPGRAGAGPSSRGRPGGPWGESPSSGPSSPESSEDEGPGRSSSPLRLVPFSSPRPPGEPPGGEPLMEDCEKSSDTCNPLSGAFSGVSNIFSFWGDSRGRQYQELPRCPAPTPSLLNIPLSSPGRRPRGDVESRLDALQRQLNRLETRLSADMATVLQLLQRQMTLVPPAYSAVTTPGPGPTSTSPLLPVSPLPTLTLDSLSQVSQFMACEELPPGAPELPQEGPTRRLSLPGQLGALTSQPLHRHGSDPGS

M5 = target: T6, M5 (Homo sapiens, UniProt P08912); assay: radioligand binding inhibition; details: […] separate tests; read-out: EC50 or IC50
T6 construct: gene CHRM5; human recombinant receptor
T6 sequence (P08912 1-532): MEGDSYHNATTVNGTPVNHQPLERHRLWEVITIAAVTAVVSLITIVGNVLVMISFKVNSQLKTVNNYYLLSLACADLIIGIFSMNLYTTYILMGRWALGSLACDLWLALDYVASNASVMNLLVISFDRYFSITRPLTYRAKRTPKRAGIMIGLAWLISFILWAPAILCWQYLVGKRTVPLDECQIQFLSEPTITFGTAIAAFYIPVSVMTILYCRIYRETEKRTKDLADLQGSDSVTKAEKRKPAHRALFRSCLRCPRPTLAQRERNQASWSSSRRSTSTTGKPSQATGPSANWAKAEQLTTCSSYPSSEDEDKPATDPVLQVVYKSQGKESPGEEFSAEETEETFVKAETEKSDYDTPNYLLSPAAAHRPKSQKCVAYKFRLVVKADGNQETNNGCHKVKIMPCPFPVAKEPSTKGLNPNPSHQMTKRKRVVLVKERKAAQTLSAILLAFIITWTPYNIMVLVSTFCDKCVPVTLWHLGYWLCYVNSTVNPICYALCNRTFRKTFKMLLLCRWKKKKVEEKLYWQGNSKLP
Description: radioligand binding inhibition on M5

IC50 (M1): 29 µM | IC50 [1]: 4.2 to 4.3 µM | IC50 [2]: 21 to 28 µM | IC50 [3]: > 30 µM | inhibition at 10 µM [4]: 82% | IC50 (M4): > 30 µM | EC50 [5]: > 30 µM | IC50 (M5): > 30 µM
SMILES: CN(C)c1cc(CNCC(C)(C)C)c(O)c2c1C[C@H]1C[C@H]3[C@H](N(C)C)C(=O)C(C(N)=O)=C(O)[C@@]3(O)C(=O)C1=C2O [omadacycline]
IC25 [6]: 166 µg/mL (≈ 298 µM)
